Results as given in patent US20190183948A1, “USE OF BCL-XL INHIBITOR AND ONCOLYTIC VIRUS IN PREPARATION OF ANTITUMOR DRUG” (GUANGZHOU VIROTECH PHARMACEUTICAL CO., LTD., priority 2016, published 2019).
pKi: −log10 of the molar value.

Tests used:
Mcl-1 = Mcl-1 (Homo sapiens, UniProt Q07820); conditions: cited from earlier work
[1] = system: human liver cancer cell Hep3B; test: MTT survival rate (Example 2), Hep3B; assay type: cell-based; conditions: 48 hours, inhibitor 100 nM, M1 MOI=0.001
Experimental: a) Inoculation of cells and administration treatment: The cells in the exponential growth phase were selected and added into a DMEM complete culture medium (containing 10% fetal bovine serum and 1% penicillin/streptomycin (Life Technologies)) to prepare a cell suspension. The cells were inoculated into a 96-well culture plate at a density of 4×10^3/well. After 12 hours, the cells were completely adherent to the wall. […] The dose was used as follows: M1 virus that infected the cells; different dose gradient set for M1 virus. b) Reaction of MTT (3-(4,5-dimethylthiazol-2-yl)-2,5-diphenyltetrazolium bromide or methyl thiazolyl tetrazolium) with succinate dehydrogenase in the cells: 48 hours after culture, 20 μl of MIT (5 mg/ml) was added into each well, and was incubated for further 4 hours. After incubation, granular blue and purple formazan crystals formed in the living cells were observed by microscopic examination. c) Dissolution of formazan particles formed in the cells was accomplished as follows: the supernatant was carefully sucked off, and 100 μl/well of DMSO was added to dissolve the formed crystals, and was shaken in a microoscillator for 5 minutes. Then, the optical density (OD value) of each well was detected in an enzyme linked detector at a wavelength of 570 nm. The experiments were repeated for 3 times for each group. […]

[2] = system: Hep3B transplantable tumor; test: Transplantable tumor growth in nude mice, Hep3B (Example 4); assay type: in vivo, BALB/c nude mice; conditions: Hep3B s.c. in nude mice; ABT-263 i.p. 10 mg/kg/d, M1 tail vein 2×10^6 PFU/time, three injections
Experimental: (§1) This experiment was designed in a randomized, single-blind way. 5×10^6 Hep3B or LoVo cells were subcutaneously injected into dorsa of the 4-week-aged BALB/c nude mice.
(§2) The weight, length and width of the tumor were measured every two days, and the volume of the tumor was calculated according to the formula: (length×width 2)/2. After the volume of the tumor was measured, One-way ANOVA statistics was carried out, wherein *** represented p<0.001 and **represented p<0.01.

[3] = system: LoVo transplantable tumor; test: Transplantable tumor growth in nude mice, LoVo (Example 4); assay type: in vivo, BALB/c nude mice; conditions: LoVo s.c. in nude mice; ABT-263 i.p. 10 mg/kg/d, M1 tail vein 2×10^6 PFU/time, three injections
Experimental: as §1, §2

Bcl-w = target: T1, Bcl-w (Homo sapiens, UniProt Q92843); conditions: cited from earlier work
T1 sequence (Q92843 1-193): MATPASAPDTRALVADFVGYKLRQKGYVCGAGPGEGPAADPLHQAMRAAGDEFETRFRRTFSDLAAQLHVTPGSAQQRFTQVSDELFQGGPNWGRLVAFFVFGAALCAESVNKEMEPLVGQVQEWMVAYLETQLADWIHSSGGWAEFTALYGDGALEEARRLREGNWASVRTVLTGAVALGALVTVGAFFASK

A1 = target: T2, A1 (Homo sapiens, UniProt Q16548); conditions: cited from earlier work
T2 sequence (Q16548 1-175): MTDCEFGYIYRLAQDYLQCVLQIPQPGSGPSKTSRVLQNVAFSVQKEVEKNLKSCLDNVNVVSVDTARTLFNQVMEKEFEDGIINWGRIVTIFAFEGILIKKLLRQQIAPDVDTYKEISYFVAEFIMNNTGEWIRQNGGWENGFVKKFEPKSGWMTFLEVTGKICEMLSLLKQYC

Bcl-B = target: T3, Bcl-B (Homo sapiens, UniProt Q9HD36); conditions: cited from earlier work
T3 sequence (Q9HD36 1-204): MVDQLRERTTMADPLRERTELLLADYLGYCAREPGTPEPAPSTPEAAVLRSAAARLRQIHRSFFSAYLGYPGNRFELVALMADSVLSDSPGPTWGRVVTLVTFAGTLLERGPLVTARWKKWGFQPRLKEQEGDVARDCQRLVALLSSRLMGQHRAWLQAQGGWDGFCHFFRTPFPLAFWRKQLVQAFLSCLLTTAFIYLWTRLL

Bfl-1 = target: T4, Bfl-1 (Homo sapiens, UniProt Q16548); conditions: cited from earlier work
T4 sequence (Q16548 1-175): T2 sequence (Q16548 1-175)

Mcl-1, sequence (Q07820 whole entry, species assumed): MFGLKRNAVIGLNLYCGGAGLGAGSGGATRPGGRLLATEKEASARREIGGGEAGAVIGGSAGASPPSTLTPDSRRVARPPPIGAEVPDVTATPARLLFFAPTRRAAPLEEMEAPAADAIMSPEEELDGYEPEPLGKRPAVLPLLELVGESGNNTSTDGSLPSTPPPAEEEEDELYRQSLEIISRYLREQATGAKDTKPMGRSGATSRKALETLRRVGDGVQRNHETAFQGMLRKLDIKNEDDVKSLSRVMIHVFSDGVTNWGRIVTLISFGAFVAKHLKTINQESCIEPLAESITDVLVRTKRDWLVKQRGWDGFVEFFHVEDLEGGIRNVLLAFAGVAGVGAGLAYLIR

| SMILES | binding / inhibitory effect on Mcl-1 (Mcl-1) | survival rate of the tumor cells [1] [%] | tumor volume vs control group [2] | tumor volume vs control group [3] | pKi (Bcl-w) | binding to A1 (A1) | inhibitory effect on Bcl-B (Bcl-B) | inhibitory effect on Bfl-1 (Bfl-1) |
| --- | --- | --- | --- | --- | --- | --- | --- | --- |
| CC1(C)CCC(CN2CCN(c3ccc(C(=O)NS(=O)(=O)c4ccc(NCC5CCOCC5)c([N+](=O)[O-])c4)c(Oc4cnc5[nH]ccc5c4)c3)CC2)=C(c2ccc(Cl)cc2)C1 [ABT-199] | no activity | – | – | – | – | – | – | – |
| CC1(C)CCC(c2ccc(Cl)cc2)=C(CN2CCN(c3ccc(C(=O)NS(=O)(=O)c4ccc(N[C@H](CCN5CCOCC5)CSc5ccccc5)c(S(=O)(=O)C(F)(F)F)c4)cc3)CC2)C1 [ABT-263] | binds weakly | 88.8 | slight shrinkage of the tumor volume | slight shrinkage of the tumor volume | ≥ 9.00 | binds weakly | – | – |
| CN(C)CC[C@H](CSc1ccccc1)Nc1ccc(S(=O)(=O)NC(=O)c2ccc(N3CCN(Cc4ccccc4-c4ccc(Cl)cc4)CC3)cc2)cc1[N+](=O)[O-] [ABT-737] | no inhibitory effect | – | – | – | – | – | no inhibitory effect | no inhibitory effect |
